Source: patent US20240122909A1, “TREATMENTS OF HEREDITARY ANGIOEDEMA” (KALVISTA PHARMACEUTICALS LIMITED, priority 2021, published 2024)

Tests used:
Factor XII (FXII) = assay: Phase 1 study, ex vivo DXS-stimulated cleavage of Factor XII (Wes); type: in vivo, human; settings: 600 mg capsules, up to 12 hrs post-dose
Text: DXS-stimulated cleavage of plasma prekallikrein and Factor XII (FXII) were quantified by capillary-based immunoassay on the Wes System (ProteinSimple) analogously.

[1] = Phase 2 study Part 2, efficacy in on-demand treatment of HAE attacks; type: in vivo, human
Protocol: In Part 2, the subjects were randomized 1:1 to 2 treatment sequences. This part of the study was conducted away from the clinic or hospital. In Sequence 1 (study arm 1) subjects received a single dose of 600 mg of the compound to treat the first eligible HAE attack. Following resolution of this attack, subjects received a single dose of placebo to treat the second eligible HAE attack.
In Sequence 2 (study arm 2) subjects received a single dose of placebo to treat the first eligible HAE attack. Following resolution of this attack, subjects received a single dose of 600 mg of the compound to treat the second eligible HAE attack.
Laryngeal or facial attacks were not eligible for treatment. HAE attacks must have been treated within the first hour of onset and before reaching severe on the global attack severity scale. Subjects must also have been able to identify the start of a HAE attack. Upon onset of the eligible HAE attack, subjects notified the dedicated study physician or qualified designee with a description of the HAE attack. The dedicated study physician or qualified designee confirmed eligibility of the HAE attack and agreed to study drug being administered. HAE attacks required documentation, on the Subject Diary, of attack location, attack symptoms, time of onset, attack severity, and time of last substantial meal prior to dosing. Subjects took study drug, as instructed, and completed timed assessments of their HAE attack symptoms for a 48 h period as documented below in Table 3. The dedicated study physician or qualified designee contacted the subject within 24 h of the eligible HAE attack to confirm the subject's safety and wellbeing. Subjects were instructed to contact the dedicated study physician or qualified designee in case of any safety concerns. In the case of hypersensitivity, subjects contacted the dedicated study physician or qualified designee or contact the nearest emergency service. The dedicated study physician or qualified designee was available 24 h/day and 7 days/week to receive subject calls.
Time to use of conventional attack treatment was assessed. The subject diary captured the efficacy endpoints including time to use of conventional attack treatment and HAE attack severity.
Overall HAE attack severity was assessed on a 5-point Likert scale (5LS) scored as none, mild, moderate, severe and very severe.
Change in HAE attack severity was assessed using a 7-point transition question (7TQ), scored as Much better/Better/A little better/No change/A little worse/Worse/Much worse.
The type of HAE attack symptoms (abdominal pain, skin pain and skin swelling) was each assessed on a 100 mm visual analogue scale (VAS) anchored at 0 (none) and 100 (very severe).
The primary endpoint, time to use of conventional attack treatment, was analyzed using a generalization of Gehan's test proposed by Feingold and Gillespie (1996) (Crossover trials with censored data. Statistics in Medicine 1996; 15(10): 953-967) to reflect the repeat measures on each subject. Subjects were treated as censored if no worsening occurs within 12 h of study drug.
The proportion of HAE attacks that worsen by one level or more on the 5LS or that require conventional attack treatment within 12 h of study drug was analyzed using Prescott's test (1981) (The comparison of success rates in cross-over trials in the presence of an order effect. Applied Statistics 1981; 30: 9-15) to compare the treatment arms.
A similar approach to that used for the primary endpoint was followed for the analysis of the time between study drug and HAE attack worsening by one level or more on the 5LS or use of conventional attack treatment, whichever comes first within 12 h. […]

Structure (SMILES): COCc1nn(Cc2ccc(Cn3ccccc3=O)cc2)cc1C(=O)NCc1nccc(OC)c1F [compound of Formula A, N-[(3-fluoro-4-methoxypyridin-2-yl)methyl]-3-(methoxymethyl)-1-({4-[(2-oxopyridin-1-yl)methyl]phenyl}methyl)pyrazole-4-carboxamide]
- effect on generation of FXIIa (Factor XII (FXII)): reduces the generation of FXIIa
- PGI-C: Median time to HAE attack being (1) rated a little worse or higher for two consecutive time points, or (2) use of conventional attack treatment, whichever comes first ([1]; 600 mg, N = 53, at 12 hours): >12 h
- PGI-C: Median time to HAE attack being rated a little worse or higher for two consecutive time points ([1]; 600 mg, N = 53, at 12 hours): >12 h
- PGI-C: Proportion of HAE attacks that were stable or improved ([1]; 600 mg, N = 53, at 12 hours): 48 (90.6) n (%)
- PGI-S: Median time to HAE attack resolution (rating of none) ([1]; 600 mg, N = 53, at 12 hours): >12 h
- PGI-S: Median time to improvement by one level or more from baseline ([1]; 600 mg, N = 53, at 12 hours): 9.0 h
- PGI-S: Proportion of HAE attacks that improved by 1 level or more from baseline ([1]; 600 mg, N = 53, at 12 hours): 30 (56.6) n (%)
- PGI-S: Proportion of patients with HAE attack resolution (rating of none) ([1]; 600 mg, N = 53, at 12 hours): 20 (37.7) n (%)
- VAS: Proportion of HAE attacks with symptom relief (50% reduction from baseline in composite VAS for three consecutive time points) ([1]; 600 mg, N = 53, at 12 hours): 33 (62.3) n (%)
- PGI-C: Median time to HAE attack being (1) rated a little worse or higher for two consecutive time points, or (2) use of conventional attack treatment, whichever comes first ([1]; 600 mg, N = 53, at 24 hours): >24 h
- PGI-C: Median time to HAE attack being rated a little worse or higher for two consecutive time points ([1]; 600 mg, N = 53, at 24 hours): >24 h
- PGI-C: Proportion of HAE attacks that were stable or improved ([1]; 600 mg, N = 53, at 24 hours): 45 (84.9) n (%)
- PGI-S: Median time to HAE attack resolution (rating of none) ([1]; 600 mg, N = 53, at 24 hours): 18.0 h
- PGI-S: Median time to improvement by one level or more from baseline ([1]; 600 mg, N = 53, at 24 hours): 9.0 h
- PGI-S: Proportion of HAE attacks that improved by 1 level or more from baseline ([1]; 600 mg, N = 53, at 24 hours): 35 (66.0) n (%)
- PGI-S: Proportion of patients with HAE attack resolution (rating of none) ([1]; 600 mg, N = 53, at 24 hours): 28 (52.8) n (%)
- VAS: Proportion of HAE attacks with symptom relief (50% reduction from baseline in composite VAS for three consecutive time points) ([1]; 600 mg, N = 53, at 24 hours): 39 (73.6) n (%)
- severity of the HAE attack, composite VAS score ([1]; 600 mg, over 12 hours and 24 hours): reduced the severity of the HAE attack
- attacks improved to “none” on PGI-S (5LS) ([1]; 600 mg, within 12 hours): 37.7%
- number of attacks stabilized or improved by PGI-S (5LS) or use of rescue ([1]; 600 mg, within 12 hours): significantly increased the number of attacks stabilized or improved
- attacks improved to “none” on PGI-S (5LS) ([1]; 600 mg, within 24 hours): 52.8%
- Median time to symptom relief ([1]; abdominal attacks): 1.5 h
- attacks that achieved attack resolution within 24 hours ([1]; abdominal attacks): 61.1%
- attacks that achieved symptom relief (PGI-C at least “A little better” within 12 hours) ([1]; abdominal attacks): 77.8%
- Median time to symptom relief ([1]; peripheral attacks): 2.5 h
- attacks that achieved attack resolution within 24 hours ([1]; peripheral attacks): 50.0%
- attacks that achieved symptom relief (PGI-C at least “A little better” within 12 hours) ([1]; peripheral attacks): 77.5%
